Reference: paper PMC8700221, “Long-Term Treatment with Atypical Antipsychotic Iloperidone Modulates Cytochrome P450 2D (CYP2D) Expression and Activity in the Liver and Brain via Different Mechanisms” (Cells, 2021)

How the values were obtained:
Type in all cases: biochemical
[1] = system: T1, CYP2D (rat brain microsomes); assay: bufuralol […]'-hydroxylation in whole-brain microsomes, HPLC with fluorometric detection; details: NADPH-generating system; 2 mg protein/mL; no inhibitor; CYP2D isoenzymes mixed
T1 construct: gene Cyp2d4; native enzymes in pooled whole-brain microsomes of control male rats (n = 10); CYP2D4 named main brain form

[2] = system: T2, CYP2D (rat liver microsomes); assay: bufuralol […]'-hydroxylation in liver microsomes, HPLC with fluorometric detection; details: NADPH-generating system; 0.5 mg protein/mL; no inhibitor; CYP2D isoenzymes mixed
T2 construct: gene Cyp2d1; native enzymes in pooled liver microsomes of control male rats (n = 10); CYP2D1 and CYP2D2 named most abundant in liver

[3] = biological target: T2, CYP2D (rat liver microsomes); assay: bufuralol […]'-hydroxylation in liver microsomes, HPLC with fluorometric detection, Dixon plot; details: competitive; bufuralol 5, 10 and 20 µM; iloperidone 1-250 µM; 0.5 mg protein/mL; NADPH-generating system; CYP2D isoenzymes mixed
[4] = biological target: T1, CYP2D (rat brain microsomes); assay: bufuralol […]'-hydroxylation in whole-brain microsomes, HPLC with fluorometric detection, Dixon plot; details: competitive; bufuralol 50, 100 and 200 µM; iloperidone 25-500 µM; 2 mg protein/mL; NADPH-generating system; CYP2D isoenzymes mixed

Km [1] [µM]	Km [2] [µM]	Ki [3] [µM]	Ki [4] [µM]	Structure (SMILES)
492	8.26	–	–	CCc1cccc2cc(C(O)CNC(C)(C)C)oc12 (stereo not shown) [bufuralol]
–	–	11.5	462	COc1cc(C(C)=O)ccc1OCCCN1CCC(c2noc3cc(F)ccc23)CC1 [iloperidone]
